Measured values as given in ChEMBL document CHEMBL1201862, “PubChem BioAssay data set” (2004).
The source made the active and inactive calls.

Columns and labels:
[1] = molecular target: Acyl-homoserine lactone acylase PvdQ (Pseudomonas aeruginosa (strain LESB58), UniProt Q9I194); test: PvdQ acylase enzyme activity blockers – biochemical, fluorescence, plate reader and imaging, cherry-picks, dose response (AID 493231)
[2] = NIH3T3 cell viability loss – ATP luminescence, mouse fibroblasts, counter-screen, dose response (AID 2010); type: functional, cell-based;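 further: cells exposed to compound for about 90 hours before reading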
[3] = molecular target: T1, Ubiquitin-conjugating enzyme E2 N (Homo sapiens, UniProt P61088); type: functional;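 further: Dose-response confirmation in a TR-FRET assay detecting UBC13-driven polyubiquitin chain formation, inhibition measured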
T1 sequence (P61088 whole entry): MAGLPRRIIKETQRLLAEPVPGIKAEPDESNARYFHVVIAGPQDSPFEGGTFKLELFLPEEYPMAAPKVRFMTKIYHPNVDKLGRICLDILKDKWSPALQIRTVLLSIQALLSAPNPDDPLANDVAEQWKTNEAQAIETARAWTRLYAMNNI

[4] = luciferase reporter signal suppression in cells – H4 neuroglioma cells, luminescence, dose response (AID 1990); type: functional, cell-based
[5] = alpha-synuclein stem-loop luciferase translation blockers – H4 neuroglioma cells, luminescence, confirmation (AID 1988); type: functional, cell-based
[6] = Trypanosoma cruzi growth suppression in host cells – NIH3T3 host cells, beta-gal luminescence, confirmation (AID 2044); type: functional, cell-based;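 further: intracellular parasites grown in NIH/3T3 mouse fibroblasts as host cells; luminescent beta-galactosidase reporter signal from transgenic T. cruzi replicating inside host cells; inhibitors lower the luminescence signal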
[7] = Luminescence Cell-Based Dose Response HTS to Identify Inhibitors of 5'UTR Stem-Loop Driven Prion Protein mRNA Translation in H4 Neuroglioblastoma Cells. [Related pubchem assays: 1827 (Project Summary), 1813 (Primary HTS)]; type: functional
[8] = molecular target: G-protein coupled receptor 35 (Homo sapiens, UniProt Q9HC97); test: inhibition of zaprinast-stimulated GPR35 beta-arrestin translocation – imaging, U2OS, beta-arrestin-GFP, zaprinast agonist, primary screen (AID 2058); type: functional;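 further: antagonist potency meaning inhibition of agonist-induced arrestin redistribution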
[9] = RanGTP/importin-beta interaction disruptors – biochemical, plate reader, dry powder, dose response (AID 493048); design: species or system Homo sapiens
Trypsin = Trypsin (Sus scrofa, UniProt P00761); test: trypsin protease activity blockade – biochemical, quenched peptide fluorescence, cherry-pick, selectivity assay for Rce1 protease inhibitor project, dose response (AID 488789)
Vero [10] = test: antiviral protection of cells from WNV – synthesized analogs, SAR follow-up (AID 2238); type: functional, cell-based; details: Chlorocebus sabaeus
Vero [11] = test: host cell viability loss, Vero E6 – synthesized analogs, cytotoxicity control for West Nile virus antiviral project, SAR follow-up (AID 2244); type: functional; details: Chlorocebus sabaeus
Vero [12] = test: Vero cell viability after compound exposure – synthesized analogs, set II, cytotoxicity control for West Nile virus antiviral project, SAR follow-up (AID 2402); type: functional; details: Chlorocebus sabaeus
[13] = A Cell Based Assay for the Identification of Probe candidate Compounds with Anti- Venezuelan Equine Encephalitis virus. [Related pubchem assays: 2409, 2419, 1621, 2238, 2405, 2024, 2065, 2402, 2414, 1635, 1650, 2244 ]; type: functional
Vero [14] = test: mammalian cell viability reduction – secondary assay, cytotoxicity control for West Nile virus antiviral project, dose response (AID 1650); type: functional; details: Chlorocebus sabaeus
Vero [15] = test: Vero 76 cell viability after compound exposure – Vero 76 cells, synthesized analogs, cytotoxicity control for West Nile virus antiviral project, SAR follow-up (AID 2414); type: functional; details: Chlorocebus sabaeus
Vero [16] = test: inhibition of WNV-induced cytopathic effect – cell-based, CPE readout (AID 1621); type: functional; details: Chlorocebus sabaeus
NS3 = NS3 (Hepatitis C virus, UniProt A3EZJ3); test: PubChem AID 2173; design: species or system Hepacivirus hominis
[17] = molecular target: C-C chemokine receptor type 6 (Homo sapiens, UniProt P51684); test: antagonism of CCR6 beta-arrestin recruitment – cell-based, luminescent beta-arrestin readout, dose response (AID 504728); type: functional
Beta-galactosidase = Beta-galactosidase (Escherichia coli, UniProt Q8VNN2); test: detection-enzyme interference by beta-gal modulators – biochemical, E. coli enzyme, set 3, artefact control for CCR6 antagonist project, dose response (AID 504712); type: functional
[18] = molecular target: T2, Neuropeptide Y receptor type 1 (Homo sapiens, UniProt P25929); test: Fluorescence-based counterscreen for agonists of NPY-Y2: cell-based high-throughput dose response assay for agonists of NPY-Y1.; type: functional
T2 sequence (P25929 whole entry): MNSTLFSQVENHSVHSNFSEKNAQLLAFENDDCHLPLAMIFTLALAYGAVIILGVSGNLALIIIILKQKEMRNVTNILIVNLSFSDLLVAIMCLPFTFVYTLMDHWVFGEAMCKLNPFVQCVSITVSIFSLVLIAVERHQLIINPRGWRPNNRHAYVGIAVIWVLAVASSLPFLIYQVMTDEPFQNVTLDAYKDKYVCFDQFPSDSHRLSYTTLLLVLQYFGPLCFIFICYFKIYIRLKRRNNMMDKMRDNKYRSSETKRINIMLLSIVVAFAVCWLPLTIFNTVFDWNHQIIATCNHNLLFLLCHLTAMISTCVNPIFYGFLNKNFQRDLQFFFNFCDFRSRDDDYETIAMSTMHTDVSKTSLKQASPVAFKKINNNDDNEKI

[19] = molecular target: T3, Neuropeptide Y receptor type 2 (Homo sapiens, UniProt P49146); test: Fluorescence-based cell-based high-throughput dose response assay for agonists of NPY-Y2. [Related pubchem assays: 1703 (Screening assay (CNGC inhibitors).), 1359 (Screening assay (NPY-Y2 potentiators or agonists).), 1304 (Screening assay (NPY-Y1 potentiators or agonists).), 1710 (Screening assay (NPY-Y2 agonists).), 1791 (Summary AID.)]; type: functional
T3 sequence (P49146 whole entry): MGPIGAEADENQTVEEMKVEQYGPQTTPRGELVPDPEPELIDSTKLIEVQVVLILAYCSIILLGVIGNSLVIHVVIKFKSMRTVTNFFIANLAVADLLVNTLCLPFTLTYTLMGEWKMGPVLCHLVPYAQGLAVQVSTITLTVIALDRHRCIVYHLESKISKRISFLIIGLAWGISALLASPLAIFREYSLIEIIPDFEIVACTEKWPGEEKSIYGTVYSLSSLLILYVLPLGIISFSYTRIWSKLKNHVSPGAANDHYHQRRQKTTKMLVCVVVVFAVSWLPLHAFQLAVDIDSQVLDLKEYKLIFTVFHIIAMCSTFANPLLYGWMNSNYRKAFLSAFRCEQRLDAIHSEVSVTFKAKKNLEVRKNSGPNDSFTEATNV

HEK293 = test: Fluorescence-based counterscreen for potentiators or agonists of NPY-Y2: cell-based high-throughput dose response assay to identify inhibitors of cyclic nucleotide gated ion channel (CNGC) activity. In this assay, the parental HEK293 cell line transfected with a cyclic-nucleotide gated ion channel (CNGC)-based cAMP sensor is used to measure inhibition of isoproterenol-induced CNGC activity by test compound.; type: functional; details: Homo sapiens;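 further: stimulus is 1 µM isoproterenol at EC100 plus PDE inhibitor Ro 20-1724 at 25 µM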
[20] = molecular target: Mothers against decapentaplegic homolog 3 (Homo sapiens, UniProt P84022); test: blockers of Smad3 complex formation in lysate – cell lysate, secondary confirmation, chemiluminescent ELISA, HEK293 lysate, dose response (AID 1058); type: functional
[21] = molecular target: Scavenger receptor class B member 1 (Mus musculus, UniProt Q61009); test: mouse SR-BI DiI-HDL uptake blockers – ldlA[mSR-BI] cells, fluorescence, cherry pick, dose response (AID 493194); type: functional, cell-based;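 further: cellular uptake of fluorescent DiI-labeled HDL measured as cell fluorescence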
[22] = molecular target: T4, Short transient receptor potential channel 4 (Mus musculus, UniProt Q9QUQ5); test: potentiation of DAMGO-evoked TRPC4 calcium signal – cell-based, HEK293 TRPC4/mu-opioid, Fluo-4 calcium, EC20 DAMGO, dose response (AID 434941); type: functional
T4 sequence (Q9QUQ5 whole entry): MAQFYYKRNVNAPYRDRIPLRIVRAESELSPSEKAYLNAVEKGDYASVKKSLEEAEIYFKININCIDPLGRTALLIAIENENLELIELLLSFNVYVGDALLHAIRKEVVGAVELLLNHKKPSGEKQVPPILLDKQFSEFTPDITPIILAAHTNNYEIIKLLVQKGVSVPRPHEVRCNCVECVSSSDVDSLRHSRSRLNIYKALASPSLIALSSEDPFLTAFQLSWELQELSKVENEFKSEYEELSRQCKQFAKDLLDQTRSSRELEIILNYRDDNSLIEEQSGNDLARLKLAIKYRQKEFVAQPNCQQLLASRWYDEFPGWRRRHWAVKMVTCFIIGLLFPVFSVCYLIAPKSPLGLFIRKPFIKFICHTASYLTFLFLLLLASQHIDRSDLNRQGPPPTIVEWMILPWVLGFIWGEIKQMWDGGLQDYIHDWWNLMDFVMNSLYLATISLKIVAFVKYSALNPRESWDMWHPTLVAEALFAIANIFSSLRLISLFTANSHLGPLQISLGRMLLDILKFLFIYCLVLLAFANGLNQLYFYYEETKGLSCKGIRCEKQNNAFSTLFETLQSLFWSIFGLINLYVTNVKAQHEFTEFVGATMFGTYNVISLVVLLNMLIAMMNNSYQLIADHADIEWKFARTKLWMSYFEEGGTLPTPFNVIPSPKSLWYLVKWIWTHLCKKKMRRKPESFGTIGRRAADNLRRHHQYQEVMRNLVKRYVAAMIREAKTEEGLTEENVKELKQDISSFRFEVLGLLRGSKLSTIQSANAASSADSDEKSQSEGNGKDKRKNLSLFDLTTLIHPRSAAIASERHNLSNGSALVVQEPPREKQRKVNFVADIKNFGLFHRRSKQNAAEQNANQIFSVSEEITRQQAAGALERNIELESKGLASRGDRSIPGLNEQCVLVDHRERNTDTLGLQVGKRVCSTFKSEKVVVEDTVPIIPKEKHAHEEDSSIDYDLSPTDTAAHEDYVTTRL

[23] = molecular target: T5, Eukaryotic translation initiation factor 2-alpha kinase 3 (Homo sapiens, UniProt Q9NZJ5); test: Dose response cell-based high-throughput screening assay to measure PERK inhibition. [Related pubchem assays: 1416 ]; type: functional
[24] = molecular target: T5, Eukaryotic translation initiation factor 2-alpha kinase 3; test: Counterscreen assay for PERK inhibitors: Dose response cell-based high throughput screening assay to measure inhibition of PERK at 6 hours. [Related pubchem assays: 1522, 1416 ]; type: functional
[25] = A cytotoxicity screen of small molecule inhibitors of the PhoP region in Salmonella typhi identified in the primary screen. [Related pubchem assays: 1850, 1864, 1985 ]; type: functional
Neutrophil collagenase = Neutrophil collagenase (Homo sapiens, UniProt P22894); test: potency against MMP13, MMP2, MMP3, MMP14 – biochemical, probe development, late stage results, selectivity assay for MMP13 inhibitor project, late-stage follow-up, panel member MMP-8 [IC50 Assay] (AID 2067)
[26] = molecular target: Lysosomal acid glucosylceramidase (Homo sapiens, UniProt P04062); test: Dose response cell-based high throughput screening assay to identify enhancers of beta-glucosidase activity. [Related pubchem assays: 784 ]; type: functional
Protein Rev = Protein Rev (Human immunodeficiency virus type 1 group M subtype B (isolate WMJ22)(HIV-1), UniProt P05866); test: inhibitors of Rev protein–RRE RNA complex – biochemical, protein-RNA interaction, dose response (AID 842); design: species or system Human immunodeficiency virus 1

T5 sequence (Q9NZJ5 whole entry): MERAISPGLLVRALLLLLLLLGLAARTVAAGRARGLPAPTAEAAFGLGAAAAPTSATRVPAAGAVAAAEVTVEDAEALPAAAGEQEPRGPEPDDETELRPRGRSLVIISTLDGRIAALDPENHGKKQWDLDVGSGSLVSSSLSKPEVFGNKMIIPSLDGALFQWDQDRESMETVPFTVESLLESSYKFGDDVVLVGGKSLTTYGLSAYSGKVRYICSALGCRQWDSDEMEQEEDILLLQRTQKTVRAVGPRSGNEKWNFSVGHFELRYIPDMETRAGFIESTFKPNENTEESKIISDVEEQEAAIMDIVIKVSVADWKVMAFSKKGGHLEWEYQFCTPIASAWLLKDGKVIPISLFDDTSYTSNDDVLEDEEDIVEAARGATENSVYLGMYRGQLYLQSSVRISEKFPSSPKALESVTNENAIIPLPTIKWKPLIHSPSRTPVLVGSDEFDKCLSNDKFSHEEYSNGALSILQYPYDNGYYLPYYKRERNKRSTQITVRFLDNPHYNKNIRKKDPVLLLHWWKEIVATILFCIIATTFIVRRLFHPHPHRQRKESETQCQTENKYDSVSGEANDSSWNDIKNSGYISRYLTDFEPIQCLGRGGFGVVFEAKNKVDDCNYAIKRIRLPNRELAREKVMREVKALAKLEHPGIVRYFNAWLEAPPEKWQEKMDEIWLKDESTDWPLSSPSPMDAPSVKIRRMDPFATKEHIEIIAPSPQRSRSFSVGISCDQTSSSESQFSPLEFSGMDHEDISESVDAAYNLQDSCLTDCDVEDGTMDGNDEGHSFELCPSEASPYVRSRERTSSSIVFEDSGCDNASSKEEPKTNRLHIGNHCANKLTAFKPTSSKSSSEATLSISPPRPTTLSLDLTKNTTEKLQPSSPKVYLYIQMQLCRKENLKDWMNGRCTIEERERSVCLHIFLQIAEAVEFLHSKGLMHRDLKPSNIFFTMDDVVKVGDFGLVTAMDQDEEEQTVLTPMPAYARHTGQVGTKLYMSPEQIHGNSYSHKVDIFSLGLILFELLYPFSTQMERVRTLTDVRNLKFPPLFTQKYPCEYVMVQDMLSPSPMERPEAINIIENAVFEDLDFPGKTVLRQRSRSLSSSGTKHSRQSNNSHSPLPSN
Scavenger receptor class B member 1, sequence (Q61009 whole entry): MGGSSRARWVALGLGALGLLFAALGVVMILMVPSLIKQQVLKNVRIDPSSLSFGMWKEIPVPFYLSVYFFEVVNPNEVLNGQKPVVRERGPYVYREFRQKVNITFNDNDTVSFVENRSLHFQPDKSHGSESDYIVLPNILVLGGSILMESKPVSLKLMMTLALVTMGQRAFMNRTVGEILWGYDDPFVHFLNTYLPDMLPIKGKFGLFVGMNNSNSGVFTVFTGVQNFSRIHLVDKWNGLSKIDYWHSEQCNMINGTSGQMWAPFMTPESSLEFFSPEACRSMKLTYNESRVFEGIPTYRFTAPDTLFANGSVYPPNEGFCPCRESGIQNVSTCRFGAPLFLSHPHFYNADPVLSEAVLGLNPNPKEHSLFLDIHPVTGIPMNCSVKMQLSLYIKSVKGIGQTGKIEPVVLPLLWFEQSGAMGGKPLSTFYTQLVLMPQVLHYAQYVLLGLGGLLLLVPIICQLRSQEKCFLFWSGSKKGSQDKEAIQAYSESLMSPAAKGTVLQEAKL
Neutrophil collagenase, sequence (P22894 whole entry): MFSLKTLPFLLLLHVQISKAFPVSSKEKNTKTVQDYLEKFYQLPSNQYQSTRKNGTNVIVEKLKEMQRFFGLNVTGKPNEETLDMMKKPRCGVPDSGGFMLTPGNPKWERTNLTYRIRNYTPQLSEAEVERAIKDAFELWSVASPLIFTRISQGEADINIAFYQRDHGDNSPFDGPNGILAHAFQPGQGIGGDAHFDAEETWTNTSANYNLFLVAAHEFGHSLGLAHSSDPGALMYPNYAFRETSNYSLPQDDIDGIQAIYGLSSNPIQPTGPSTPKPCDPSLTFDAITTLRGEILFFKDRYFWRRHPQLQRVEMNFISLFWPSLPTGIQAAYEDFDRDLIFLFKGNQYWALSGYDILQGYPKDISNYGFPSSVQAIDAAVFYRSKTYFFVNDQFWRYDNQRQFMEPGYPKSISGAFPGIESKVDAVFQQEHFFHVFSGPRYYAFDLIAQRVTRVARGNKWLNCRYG
G-protein coupled receptor 35, sequence (Q9HC97 whole entry): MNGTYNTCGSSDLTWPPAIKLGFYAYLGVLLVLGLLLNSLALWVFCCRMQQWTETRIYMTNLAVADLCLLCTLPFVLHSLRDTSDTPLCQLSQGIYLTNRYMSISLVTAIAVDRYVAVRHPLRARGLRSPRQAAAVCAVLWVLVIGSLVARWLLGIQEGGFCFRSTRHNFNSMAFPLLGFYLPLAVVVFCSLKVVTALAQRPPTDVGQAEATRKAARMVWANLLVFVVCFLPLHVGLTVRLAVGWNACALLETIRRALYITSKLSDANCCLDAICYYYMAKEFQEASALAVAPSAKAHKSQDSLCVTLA
Beta-galactosidase, sequence (Q8VNN2 whole entry): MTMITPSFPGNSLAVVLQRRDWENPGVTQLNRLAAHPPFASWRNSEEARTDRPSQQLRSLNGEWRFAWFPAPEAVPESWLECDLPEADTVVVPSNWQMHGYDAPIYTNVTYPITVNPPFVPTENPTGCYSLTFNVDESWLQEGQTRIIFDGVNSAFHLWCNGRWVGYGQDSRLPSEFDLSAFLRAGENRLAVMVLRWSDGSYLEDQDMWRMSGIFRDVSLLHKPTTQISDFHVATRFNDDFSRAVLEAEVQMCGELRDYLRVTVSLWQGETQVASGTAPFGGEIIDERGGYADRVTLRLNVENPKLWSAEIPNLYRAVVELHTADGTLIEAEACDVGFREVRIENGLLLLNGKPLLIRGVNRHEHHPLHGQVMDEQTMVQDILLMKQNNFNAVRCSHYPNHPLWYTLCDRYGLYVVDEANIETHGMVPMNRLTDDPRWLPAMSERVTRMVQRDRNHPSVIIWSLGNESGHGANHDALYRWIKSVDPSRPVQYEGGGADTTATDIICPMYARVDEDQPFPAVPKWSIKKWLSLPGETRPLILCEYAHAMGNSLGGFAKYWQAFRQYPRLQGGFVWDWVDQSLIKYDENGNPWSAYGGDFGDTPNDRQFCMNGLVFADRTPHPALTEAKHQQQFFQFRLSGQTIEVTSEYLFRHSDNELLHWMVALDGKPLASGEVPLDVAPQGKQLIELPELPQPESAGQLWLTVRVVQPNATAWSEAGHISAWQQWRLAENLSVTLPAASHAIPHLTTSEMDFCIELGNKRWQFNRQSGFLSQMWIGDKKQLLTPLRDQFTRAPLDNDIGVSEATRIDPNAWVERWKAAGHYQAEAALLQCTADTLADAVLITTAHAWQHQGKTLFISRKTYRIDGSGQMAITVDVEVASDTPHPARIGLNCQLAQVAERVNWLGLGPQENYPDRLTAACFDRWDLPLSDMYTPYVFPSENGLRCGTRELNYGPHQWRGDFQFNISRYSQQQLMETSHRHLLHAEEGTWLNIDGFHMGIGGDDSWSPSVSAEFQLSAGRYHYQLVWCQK
NS3, sequence (A3EZJ3 whole entry): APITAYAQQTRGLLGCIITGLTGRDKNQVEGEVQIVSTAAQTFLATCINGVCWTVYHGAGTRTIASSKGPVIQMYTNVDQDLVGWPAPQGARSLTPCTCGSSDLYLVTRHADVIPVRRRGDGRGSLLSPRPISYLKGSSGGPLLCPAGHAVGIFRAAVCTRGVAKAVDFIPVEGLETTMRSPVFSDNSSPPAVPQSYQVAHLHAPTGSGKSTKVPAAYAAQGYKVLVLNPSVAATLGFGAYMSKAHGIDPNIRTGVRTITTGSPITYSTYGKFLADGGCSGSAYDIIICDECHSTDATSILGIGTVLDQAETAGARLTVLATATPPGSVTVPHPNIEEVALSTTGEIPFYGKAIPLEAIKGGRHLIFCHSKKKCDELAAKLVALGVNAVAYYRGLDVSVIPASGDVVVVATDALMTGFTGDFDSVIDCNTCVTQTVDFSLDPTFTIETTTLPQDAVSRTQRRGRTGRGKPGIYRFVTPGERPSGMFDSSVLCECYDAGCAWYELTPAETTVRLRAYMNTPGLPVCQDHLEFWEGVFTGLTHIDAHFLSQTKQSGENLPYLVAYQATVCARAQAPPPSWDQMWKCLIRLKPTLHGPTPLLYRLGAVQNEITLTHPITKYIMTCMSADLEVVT
Lysosomal acid glucosylceramidase, sequence (P04062 whole entry): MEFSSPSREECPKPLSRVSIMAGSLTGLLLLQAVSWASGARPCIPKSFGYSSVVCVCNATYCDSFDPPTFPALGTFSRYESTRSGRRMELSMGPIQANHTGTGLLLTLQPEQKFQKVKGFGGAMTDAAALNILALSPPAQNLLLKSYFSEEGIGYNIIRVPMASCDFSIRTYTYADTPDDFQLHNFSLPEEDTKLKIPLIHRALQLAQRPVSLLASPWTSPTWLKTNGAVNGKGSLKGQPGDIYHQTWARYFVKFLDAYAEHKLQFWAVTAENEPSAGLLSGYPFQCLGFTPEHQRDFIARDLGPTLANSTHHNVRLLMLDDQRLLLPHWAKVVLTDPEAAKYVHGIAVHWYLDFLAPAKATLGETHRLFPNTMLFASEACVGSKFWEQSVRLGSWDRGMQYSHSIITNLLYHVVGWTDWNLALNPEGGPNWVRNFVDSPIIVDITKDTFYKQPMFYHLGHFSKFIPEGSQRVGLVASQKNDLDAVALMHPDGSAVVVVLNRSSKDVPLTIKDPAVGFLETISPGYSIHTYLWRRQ
C-C chemokine receptor type 6, sequence (P51684 whole entry): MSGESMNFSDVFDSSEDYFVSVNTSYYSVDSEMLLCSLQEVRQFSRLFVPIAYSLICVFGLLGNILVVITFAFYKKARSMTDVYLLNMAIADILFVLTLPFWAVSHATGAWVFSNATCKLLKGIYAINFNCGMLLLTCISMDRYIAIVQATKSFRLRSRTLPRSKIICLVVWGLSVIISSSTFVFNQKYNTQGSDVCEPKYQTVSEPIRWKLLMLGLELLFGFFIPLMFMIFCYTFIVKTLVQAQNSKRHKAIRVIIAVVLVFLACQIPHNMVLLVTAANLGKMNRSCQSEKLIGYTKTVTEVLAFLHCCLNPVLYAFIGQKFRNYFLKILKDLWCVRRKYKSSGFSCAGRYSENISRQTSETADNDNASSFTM

Clc1ccc2scc(CN3CCCC3)c2c1
AC50 [1]: 2.66 µM (active)

CCN(CC)CCCNc1ccc(-c2nnc(-c3ccc(OCC(C)C)cc3)o2)cn1
EC50 [2]: 4.75 µM (active) | IC50 [3]: > 20 µM (inactive) | EC50 (cells): 0.394 µM (active) | EC50 [4]: > 120 µM (not active) | EC50 [5]: > 30 µM (not active) | EC50 [6]: < 0.1 µM (active) | EC50 [7]: 13.5 µM (active) | IC50 [8]: 1.96 µM (active)

COCCNC(=O)/C(C#N)=C/c1cn(CC(=O)NCc2ccco2)c2ccccc12
AC50 [9]: 174 µM (active)

COCc1c(Br)c(C)nc(O)c1C#N
AC50 (Trypsin): 72.8 µM (active)

CC1CCN(CCCNC(=O)c2cc3c(s2)-c2ccccc2OC3)CC1
IC50 (Vero [10]): > 40 µM (active) | CC50 (Vero [11]): 26.2 µM (active) | CC50 (Vero [12]): 19.5 µM (active) | IC50 [13]: 18.2 µM (active) | CC50 (Vero [14]): > 100 µM (active) | CC50 (Vero [15]): > 66.6 µM (active) | IC50 (Vero [16]): 25.1 µM (active)

Cc1ccc(C(CCN(Cc2ccccc2)C(=O)c2ccco2)c2ccco2)cc1 (stereo not drawn)
IC50 (NS3): 8.82 µM (active) | IC50 [17]: > 66.6 µM (inactive) | IC50 (Beta-galactosidase): > 66.6 µM (inactive)

C=CCc1ccccc1OCC(O)CN1CCN(c2ccc(C)cc2)CC1 (stereo not drawn)
EC50 [18]: 8.5 µM (active) | EC50 [19]: 14.8 µM (not active) | EC50 (HEK293): 1.78 µM (active)

COc1cc(C(c2cc3c(cc2O)OCO3)N2CCOCC2)cc(OC)c1OC (stereo not drawn)
IC50 [20]: 9.66 µM (not active)

Cc1cccc(N2CCN(C(=O)CN3C(=O)NC4(CCCCCC4)C3=O)CC2)c1C
AC50 [21]: 47.4 µM (active)

O=C(NCc1ccccc1)C1=C[C@H](c2ccc(C(F)(F)F)cc2)C[C@H](OCc2ccc(CO)cc2)O1
EC50 [22]: 5.96 µM (active)

CCSc1nnc(NC(=O)c2cc(-c3ccccc3O)[nH]n2)s1
EC50 [23]: > 55.7 µM (not active) | EC50 [24]: > 55.7 µM (not active)

CC(C)(C)n1nc2c(c1NC(=O)c1ccccc1)CS(=O)(=O)C2
EC50 [25]: > 50 µM (active)

COC(=O)c1ccc(CSc2nc3c(c(=O)[nH]2)CCC3)cc1
IC50 (Neutrophil collagenase): > 39.8 µM (inactive)

Cc1ccc(-n2c(=O)c(C#N)cc3c(=O)n4ccccc4nc32)cc1
EC50 [26]: > 50 µM (not active)

O=C(CN1C2=NCCN2c2ccccc21)c1ccc(Br)cc1
IC50 (Protein Rev): > 79.4 µM (not active)
